# From ChEMBL document CHEMBL5126592, “Design, synthesis and activity against drug-resistant bacteria evaluation of C-20, C-23 modified 5-O-mycaminosyltylonolide derivatives” (Eur J Med Chem, 2022)
# Key:
# Format in all cases: functional
# Conditions in all cases: time 16-20 hrs
# Klebsiella pneumoniae = assay: Antibacterial activity against Klebsiella pneumoniae ATCC 13883 incubated for 16 to 20 hrs by broth microdilution method
# Escherichia coli = assay: Antibacterial activity against Escherichia coli ATCC 25922 incubated for 16 to 20 hrs by broth microdilution method
# Staphylococcus aureus = assay: Antibacterial activity against Staphylococcus aureus ATCC 25923 incubated for 16 to 20 hrs by broth microdilution method
# Cronobacter sakazakii = assay: Antibacterial activity against Cronobacter sakazakii ATCC 29544 incubated for 16 to 20 hrs by broth microdilution method
Structure (SMILES),MIC (Klebsiella pneumoniae) [µg/mL],MIC (Escherichia coli) [µg/mL],MIC (Staphylococcus aureus) [µg/mL],MIC (Cronobacter sakazakii) [µg/mL]
CC[C@H]1OC(=O)C[C@@H](O)[C@H](C)[C@@H](O[C@@H]2O[C@H](C)[C@@H](O)[C@H](N(C)C)[C@H]2O)[C@@H](CCN(Cc2ccc(C(F)(F)F)cc2)Cc2cn(-c3cnc4ccccc4c3)nn2)C[C@@H](C)C(=O)/C=C/C(C)=C/[C@@H]1CI,32,32,4,32
CC[C@H]1OC(=O)C[C@@H](O)[C@H](C)[C@@H](O[C@@H]2O[C@H](C)[C@@H](O)[C@H](N(C)C)[C@H]2O)[C@@H](CCN(Cc2ccccc2)Cc2cn(-c3cnc4ccccc4c3)nn2)C[C@@H](C)C(=O)/C=C/C(C)=C/[C@@H]1CI,32,32,2,32
CC[C@H]1OC(=O)C[C@@H](O)[C@H](C)[C@@H](O[C@@H]2O[C@H](C)[C@@H](O)[C@H](N(C)C)[C@H]2O)[C@@H](CCN(Cc2ccc(C(F)(F)F)cc2)Cc2cn(-c3cnc4ccccc4c3)nn2)C[C@@H](C)C(=O)/C=C/C(C)=C/[C@@H]1CN1CCC(O)CC1,32,16,2,32
CC[C@H]1OC(=O)C[C@@H](O)[C@H](C)[C@@H](O[C@@H]2O[C@H](C)[C@@H](O)[C@H](N(C)C)[C@H]2O)[C@@H](CCN(Cc2ccc([N+](=O)[O-])cc2)Cc2cn(-c3cnc4ccccc4c3)nn2)C[C@@H](C)C(=O)/C=C/C(C)=C/[C@@H]1CO,32,32,0.25,32
CC[C@H]1OC(=O)C[C@@H](O)[C@H](C)[C@@H](O[C@@H]2O[C@H](C)[C@@H](O)[C@H](N(C)C)[C@H]2O)[C@@H](CCN(Cc2cn(-c3cnc4ccccc4c3)nn2)Cc2ccc(CO)o2)C[C@@H](C)C(=O)/C=C/C(C)=C/[C@@H]1CO,32,32,0.5,32
CC[C@H]1OC(=O)C[C@@H](O)[C@H](C)[C@@H](O[C@@H]2O[C@H](C)[C@@H](O)[C@H](N(C)C)[C@H]2O)[C@@H](CCN(Cc2ccc(O)c(OC)c2)Cc2cn(-c3cnc4ccccc4c3)nn2)C[C@@H](C)C(=O)/C=C/C(C)=C/[C@@H]1CO,16,16,0.5,16
CC[C@H]1OC(=O)C[C@@H](O)[C@H](C)[C@@H](O[C@@H]2O[C@H](C)[C@@H](O)[C@H](N(C)C)[C@H]2O)[C@@H](CCN(Cc2ccc(C(F)(F)F)cc2)Cc2cn(-c3cnc4ccccc4c3)nn2)C[C@@H](C)C(=O)/C=C/C(C)=C/[C@@H]1CO,32,8,0.25,16

# More lines, now with the values ahead:
MIC (Klebsiella pneumoniae) [µg/mL],MIC (Escherichia coli) [µg/mL],MIC (Staphylococcus aureus) [µg/mL],MIC (Cronobacter sakazakii) [µg/mL],Structure (SMILES)
16,32,4,16,CC[C@H]1OC(=O)C[C@@H](O)[C@H](C)[C@@H](O[C@@H]2O[C@H](C)[C@@H](O)[C@H](N(C)C)[C@H]2O)[C@@H](CCN(Cc2ccc(C(F)(F)F)cc2)Cc2cn(-c3cnc4ccccc4c3)nn2)C[C@@H](C)C(=O)/C=C/C(C)=C/[C@@H]1CN1CC(C)CC(C)C1 (some centres not stated)
8,8,1,8,CC[C@H]1OC(=O)C[C@@H](O)[C@H](C)[C@@H](O[C@@H]2O[C@H](C)[C@@H](O)[C@H](N(C)C)[C@H]2O)[C@@H](CCN(Cc2ccccc2)Cc2cn(-c3cnc4ccccc4c3)nn2)C[C@@H](C)C(=O)/C=C/C(C)=C/[C@@H]1CN1CCCCC1
4,4,0.25,8,CCCN(CCC)C[C@H]1/C=C(C)/C=C/C(=O)[C@H](C)C[C@H](CCN(C)Cc2cn(-c3cnc4ccccc4c3)nn2)[C@H](O[C@@H]2O[C@H](C)[C@@H](O)[C@H](N(C)C)[C@H]2O)[C@@H](C)[C@H](O)CC(=O)O[C@@H]1CC
4,4,1,8,CC[C@H]1OC(=O)C[C@@H](O)[C@H](C)[C@@H](O[C@@H]2O[C@H](C)[C@@H](O)[C@H](N(C)C)[C@H]2O)[C@@H](CCN(Cc2ccc(N(C)C)cc2)Cc2cn(-c3cnc4ccccc4c3)nn2)C[C@@H](C)C(=O)/C=C/C(C)=C/[C@@H]1CN1CCCCCC1
8,4,0.5,8,CC[C@H]1OC(=O)C[C@@H](O)[C@H](C)[C@@H](O[C@@H]2O[C@H](C)[C@@H](O)[C@H](N(C)C)[C@H]2O)[C@@H](CCN(Cc2ccc(N(C)C)cc2)Cc2cn(-c3cnc4ccccc4c3)nn2)C[C@@H](C)C(=O)/C=C/C(C)=C/[C@@H]1CN1CCCCC1
4,8,1,16,CC[C@H]1OC(=O)C[C@@H](O)[C@H](C)[C@@H](O[C@@H]2O[C@H](C)[C@@H](O)[C@H](N(C)C)[C@H]2O)[C@@H](CCN(Cc2ccccc2)Cc2cn(-c3cnc4ccccc4c3)nn2)C[C@@H](C)C(=O)/C=C/C(C)=C/[C@@H]1CN(C)C
